5 compounds from patent US20120157471A1, “BENZIMIDAZOLE DERIVATIVES” (PFIZER INC., priority 2009, published 2012) can be followed below.

The target of test [1] is T1, human Smo (amino acids 181-787) (Homo sapiens, UniProt Q99835).
T1 construct: expressed in transfected cells; membrane preparation
Briefly: Smo radioligand competition binding assay (displacement of 3H-PF-03451358 from HEK293 membranes). As to conditions: for inhibition at 0.05 µM: 0.05 μM test compound, displacement of 3H-PF-03451358, read-out: SMO % inh. @ 0.05 μM; for IC50: radioligand competition binding. In a few lines:
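Membranes (40 μg protein/well) from HEK293 expressing murine Igk-leader-fused Smo 181-787 incubated 2 h at room temperature with 3 nM 3H-PF-03451358 in Tris pH 7.5/NaCl/MgCl2/EDTA/BSA buffer; filter-bound counts by scintillation. Nonspecific binding with 30 μM cold PF-03451358; IC50 from four-parameter fit of % inhibition.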

Test [2] deals with Gli-Luc/MEF cells (Smo). In words: Gli-Luc/MEF assay (Shh-stimulated luciferase reporter under the Gli response element). The format is cell-based, mouse. To be noted: Mus musculus, MEF, 48 h. A digest of the protocol: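 Mouse Gli-Luc/MEF cells dosed with compound (3-fold series, […]) plus 2 μg/mL recombinant mouse Shh, then incubated 48 h at 37° C, 5% CO2. Bright-Glo luminescence read; IC50 calculated from inhibition of Shh-stimulated luciferase.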

SMILES strings stand for the structures.

T1 sequence (Q99835 181-787): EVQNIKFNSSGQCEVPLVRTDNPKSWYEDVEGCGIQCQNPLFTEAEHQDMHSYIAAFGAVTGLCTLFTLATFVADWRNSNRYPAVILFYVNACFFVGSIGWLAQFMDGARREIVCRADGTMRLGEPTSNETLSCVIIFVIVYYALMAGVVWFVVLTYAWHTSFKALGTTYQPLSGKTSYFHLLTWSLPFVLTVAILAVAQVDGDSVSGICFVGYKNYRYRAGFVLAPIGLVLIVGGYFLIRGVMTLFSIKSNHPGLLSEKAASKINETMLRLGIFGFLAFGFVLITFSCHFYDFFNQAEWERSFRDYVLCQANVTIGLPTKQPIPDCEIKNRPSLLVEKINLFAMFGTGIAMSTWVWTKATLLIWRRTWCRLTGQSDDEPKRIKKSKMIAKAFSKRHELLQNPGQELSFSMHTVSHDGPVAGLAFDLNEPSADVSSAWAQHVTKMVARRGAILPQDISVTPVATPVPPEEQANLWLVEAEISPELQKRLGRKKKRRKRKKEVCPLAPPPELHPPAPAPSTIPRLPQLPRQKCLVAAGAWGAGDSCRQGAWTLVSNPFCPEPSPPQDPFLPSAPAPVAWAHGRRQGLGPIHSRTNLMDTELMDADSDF

Turning to `Cc1cnc(N2CCC(CS(C)(=O)=O)CC2)cc1-c1nc2ccccc2n1C` [Example E-2, 1-methyl-2-(5-methyl-2-{4-[(methylsulfonyl)methyl]piperidin-1-yl}pyridin-4-yl)-1H-benzimidazole], the inhibition at 0.05 µM in test [1] is 99%. Also, the IC50 in test [1] was 18 nM; in test [2], 20.9 nM.
The like results for `Cc1cnc(N2CCN(S(C)(=O)=O)CC2)cc1-c1nc2ccccc2n1C` [Example E-3, 1-methyl-2-{5-methyl-2-[4-(methylsulfonyl)piperazin-1-yl]pyridin-4-yl}-1H-benzimidazole] were, in that order, 97%, 33 nM and 38.1 nM.
Take `CC(=O)N1CCN(c2cc(-c3nc4ccccc4n3C)c(C)cn2)CC1` [Example E-4, 2-[2-(4-acetylpiperazin-1-yl)-5-methylpyridin-4-yl]-1-methyl-1H-benzimidazole]: in test [1], the inhibition at 0.05 µM worked out at 92% and the IC50 was determined as 61 nM. The compound also had an IC50 in test [2] of 52.5 nM.
As to `Cc1cnc(N2CCC(S(C)(=O)=O)CC2)cc1-c1nc2ccccc2n1C` [Example E-5, 1-methyl-2-{5-methyl-2-[4-(methylsulfonyl)piperidin-1-yl]pyridin-4-yl)-1H-benzimidazole], in test [1], the inhibition at 0.05 µM is 89% and the IC50 worked out at 59 nM. In test [2], this compound showed a 50% inhibitory concentration (IC50) of 58.9 nM.
Regarding `Cc1ccc(N2CCC(S(C)(=O)=O)CC2)nc1-c1nc2ccccc2n1C` [Example E-6, 1-methyl-2-{3-methyl-6-[4-(methylsulfonyl)piperidin-1-yl]pyridin-2-yl}-1H-benzimidazole], in test [1], the inhibition at 0.05 µM turned out to be 89% and the half-maximal inhibitory concentration (IC50) was 51 nM. In test [2], the IC50 stood at 61.6 nM.
